One data set has as its system primary immune cells. Particulars: primary immune cells ref 9; cited from earlier work.
In data set [1] the test system is Caco-2 cell barrier. The data set can be described thus: Cell barrier integrity (TEER, cellZscope2). Format: cell-based. As to conditions: 10 mM, positive control.
For data set [2], the system named is Caco-2 cell barrier. Particulars: human, 200 µM.
The next data set relates to Calu-3 cell barrier. As to conditions: human, 24 h, 200 µM.
A short description of data set [3]: Stability assay in human liver microsomes. As to conditions: pH 7.4, human liver microsomes 0.5 mg/mL, 10 µM. It is filed as in vitro ADME. The protocol:
The reaction was started with 1 mM NADPH diluted in potassium phosphate buffer. As control, samples without NAPDH were used. After various time points (0 h, 1 h, 2 h, 4 h), the reaction was stopped by adding ice-cold acetonitrile. The samples were centrifuged (5 min, 4 °C, 10,000× g) and supernatant was stored at −80 °C until the remaining drug concentration was determined by LC-MS/MS as described in detail below. The concentrations of the drugs were plotted against time and the elimination constant (k) was calculated from the slope (m):m = −k
Equation to determine half-life:T1/2 = 0.693/K
Equation to determine intrinsic clearance:Cl = Ln(2) × 1000/T1/2/protein concentration
In general terms: Liver microsomes are a subcellular fraction often used to study metabolism.

A further data set concerns Caco-2 cells. As to conditions: human, 25 µM.
The test system of another data set is Calu-3 cells. Particulars: human, 25 µM.
The next data set deals with T1, P-glycoprotein (Homo sapiens, UniProt P08183).
T1 construct: endogenous in cells; host or cells: Caco-2 (high P-gp), Calu-3 (low P-gp)
Particulars: cited from earlier work.

Data set [4] concerns HEK293T cells. The data set can be described thus: cAMP assay (GloSensor luciferase), GPCR off-target. As to conditions: 5 µM forskolin, positive control. Background: Changes in cAMP serve as a functional read-out for many G protein-coupled receptors.
Another data set concerns HepG2 cells. The data set can be described thus: In Vitro Micronuclei Plus assay (flow cytometry).
Data set [5] deals with HEK293T cells. Nature of the data set: Ca2+-release assay (Fluo-8-AM), GPCR off-target. It is filed as cell-based. As to conditions: 10 µM ionomycin, positive control. How it is done: Next, 50,000 HEK293T cells were seeded in a 96-well poly-D-lysine-coated plate and incubated at 37 °C for 24 h. Cells were incubated with 4 µM Fluo-8-AM in HBSS for 1 h at 37 °C. After 1 h, the Fluo-8/HBSS was replaced by 100 µL HBSS. Five images per second were taken using an ImageXpress Micro Confocal High Content Imaging System (Molecular Device, San Jose, CA, USA). […] An image was taken every second for the next 20 s. The MetaXpress Software Version 6.7.1.157 (San Jose, CA, USA) was used to analyze the data. A threshold of fluorescence intensity was defined using cells before treatment and all cells with a fluorescence signal above the threshold level were counted and related to all cells.

Data set [6] relates to HEK293T cells. Nature of the data set: IP3 assay, GPCR off-target. Format: cell-based. As to conditions: 10 µM ionomycin, positive control.
The next data set concerns MDA-MB-231 cell line. Also on record: method as in PMID 32470302. As to conditions: MDA-MB-231, 100 nM ref 39; cited from earlier work.

Where two headings read alike, the source gives them in different places.

T1 sequence (P08183 whole entry): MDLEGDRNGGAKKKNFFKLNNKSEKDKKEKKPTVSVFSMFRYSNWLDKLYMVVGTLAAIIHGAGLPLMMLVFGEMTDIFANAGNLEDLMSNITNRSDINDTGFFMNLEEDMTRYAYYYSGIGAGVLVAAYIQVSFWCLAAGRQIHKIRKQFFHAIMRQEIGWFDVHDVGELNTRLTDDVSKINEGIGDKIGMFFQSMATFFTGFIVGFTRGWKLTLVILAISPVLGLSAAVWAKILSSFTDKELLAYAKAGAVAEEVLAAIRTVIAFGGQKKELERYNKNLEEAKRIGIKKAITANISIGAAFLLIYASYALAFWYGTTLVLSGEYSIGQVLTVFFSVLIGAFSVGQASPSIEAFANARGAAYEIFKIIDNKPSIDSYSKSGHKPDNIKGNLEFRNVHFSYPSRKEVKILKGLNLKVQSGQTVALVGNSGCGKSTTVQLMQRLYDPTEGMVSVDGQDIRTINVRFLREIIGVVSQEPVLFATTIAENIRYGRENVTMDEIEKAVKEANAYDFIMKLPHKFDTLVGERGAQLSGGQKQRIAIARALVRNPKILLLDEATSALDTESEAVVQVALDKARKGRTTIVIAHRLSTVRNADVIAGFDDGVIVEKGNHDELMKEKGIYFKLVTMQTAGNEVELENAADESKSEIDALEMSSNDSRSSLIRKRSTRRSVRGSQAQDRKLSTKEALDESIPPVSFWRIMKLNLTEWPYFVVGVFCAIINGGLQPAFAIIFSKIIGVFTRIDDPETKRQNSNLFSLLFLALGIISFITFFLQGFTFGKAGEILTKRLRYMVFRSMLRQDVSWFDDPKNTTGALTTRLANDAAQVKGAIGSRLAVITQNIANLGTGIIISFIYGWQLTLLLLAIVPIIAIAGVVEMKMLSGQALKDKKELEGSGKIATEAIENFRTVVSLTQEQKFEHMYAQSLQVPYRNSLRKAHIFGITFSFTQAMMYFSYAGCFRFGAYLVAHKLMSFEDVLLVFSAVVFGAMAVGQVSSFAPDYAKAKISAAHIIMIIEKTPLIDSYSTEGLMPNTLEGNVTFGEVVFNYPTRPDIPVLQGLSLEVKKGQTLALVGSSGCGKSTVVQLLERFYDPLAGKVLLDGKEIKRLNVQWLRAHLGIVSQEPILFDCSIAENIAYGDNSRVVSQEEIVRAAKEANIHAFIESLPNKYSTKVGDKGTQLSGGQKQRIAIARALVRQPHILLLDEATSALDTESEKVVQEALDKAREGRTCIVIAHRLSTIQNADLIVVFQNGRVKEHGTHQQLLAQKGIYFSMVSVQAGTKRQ

`CONC(=O)[C@H]1[C@@H](O)[C@@]2(O)c3c(OC)cc(OC)cc3O[C@@]2(c2ccc(OC)cc2)[C@@H]1c1ccccc1` [CR31B (-)]: the “cytotoxicity compared with silvestrol” value with primary immune cells is reported as “comparable cytotoxic effects to those of silvestrol”.
`O=C(O)CN(CCOCCOCCN(CC(=O)O)CC(=O)O)CC(=O)O` [EGTA, reference compound]: the “effect on TEER readings (cell barrier integrity)” value in the data set with Caco-2 cell barrier [1] is reported as “caused a drop in TEER readings”.
`NC(=O)N1c2ccccc2C=Cc2ccccc21` [carbamazepine]: the figures for the transport rate result in the data set with Caco-2 cell barrier [2] (4 h) and in the data set with Calu-3 cell barrier were “approx. 45%” and 74%, respectively.
What is called half-life is the time in which the quantity being followed falls by half. A lower half-life goes with rapid decline. Consider `Cc1ccc(-c2cc(C(F)(F)F)nn2-c2ccc(S(N)(=O)=O)cc2)cc1` [celecoxib, reference compound], for which, in data set [3], the half-life at 10 µM was 2.3 ± 0.5 h. Moreover, the microsomal CLint at 10 µM in data set [3] (read-out: intrinsic clearance) was 10.5 ± 2 µL/min/mg. For the same molecule, the uptake rate result with Caco-2 cells and in the data set on Calu-3 cells was “about 2.5 ng/µg protein” each time. In addition, the “substrate of P-glycoprotein” value on P-glycoprotein is “not a substrate of P-glycoprotein”.
For the molecule `NC(N)=Nc1nc(CSCCC(N)=NS(N)(=O)=O)cs1` [famotidine], the transport rate with Caco-2 cell barrier [2] (4 h) turned out to be 0.7%; in the data set with Caco-2 cell barrier [2] (24 h), 1.3%; with Calu-3 cell barrier, 8.3%.
As for `C=C[C@@]1(C)CC(=O)[C@]2(O)[C@@]3(C)[C@@H](O)CCC(C)(C)[C@@H]3[C@H](O)[C@H](OC(C)=O)[C@@]2(C)O1` [forskolin, reference compound], the “induction of cAMP formation” value in the data set on HEK293T cells [4] is recorded as “induced significant increases”.
Regarding `CC(C)Cc1ccc(C(C)C(=O)O)cc1` (stereo not drawn) [ibuprofen, reference compound], in the data set on HepG2 cells (positive and negative control), the “genotoxicity by the criteria of OECD guideline 487” value was “no effects”.
As to `C[C@H](CCC(=O)O)C[C@H](C)C[C@H](C)C(=O)/C=C(\O)[C@H](C)C[C@H](C)C/C=C/[C@@H](C)[C@@H](O)[C@@H](C)[C@@H](O)C[C@@H]1CC[C@@](C)([C@H]2CC[C@@](C)([C@@H](C)O)O2)O1` [ionomycin, reference compound], in the data set on HEK293T cells [5], the “induction of Ca2+-release” value is “induced significant increases”. Besides, in the data set with HEK293T cells [6], the “induction of IP3 synthesis” value is listed as “induced significant increases”.
Take `COc1cc2c(c(OC)n1)[C@]1(O)[C@H](O)[C@H](CN(C)C)[C@@H](c3ccccc3)[C@]1(c1ccc(C#N)cc1)O2` [zotatifin, reference compound]: the “effect on cell cycle and apoptosis” value with MDA-MB-231 cell line was “induces a G2 cell cycle block and apoptosis”. In addition, the “clastogenic effects (micronuclei)” value with HepG2 cells (10 nM only, not concentration dependent) is “some clastogenic and aneugenic effects”.

Source of the values: article PMC9502993 (Pharmaceuticals, 2022).
